Tests used:
CXCR4 receptor = CXCR4 receptor (Homo sapiens, UniProt P61073); test: binding of radiolabeled SDF-1α to the CXCR4 receptor; conditions: 10 μM
Description: Alternative mechanisms might also be responsible for the observed immune inducing effects of PBT. The FDA-approved compound, plerixafor (also known as AMD3100), is used as a hematopoietic stem cell mobilizer for use in combination with granulocyte-colony stimulating factor (G-CSF) for peripheral blood collection and subsequent autologous transplantation in patients with non-Hodgkin's lymphoma and multiple myeloma. […] We tested the effect of 10 μM AMXT 1501 on the binding of radiolabeled SDF-1α to the CXCR4 receptor and found no inhibition. […] Since an interaction between AMXT 1501 and the CXCR4 receptor was not observed, a polyamine-dependant mechanism of immune-suppression is maintained.

human TLR 2 = human TLR 2 (Homo sapiens, UniProt O60603); test: Toll-Like Receptor (TLR) screening assay, TLR2; type: cell-based; conditions: 10 μM; control HKLM
human TLR5 = human TLR5 (Homo sapiens, UniProt O60602); test: Toll-Like Receptor (TLR) screening assay, TLR5; type: cell-based; conditions: 10 μM
human TLR7 = molecular target: T1, human TLR7 (Homo sapiens, UniProt Q9NYK1); test: Toll-Like Receptor (TLR) screening assay, TLR7; type: cell-based; conditions: 10 μM
T1 sequence (Q9NYK1 27-1049): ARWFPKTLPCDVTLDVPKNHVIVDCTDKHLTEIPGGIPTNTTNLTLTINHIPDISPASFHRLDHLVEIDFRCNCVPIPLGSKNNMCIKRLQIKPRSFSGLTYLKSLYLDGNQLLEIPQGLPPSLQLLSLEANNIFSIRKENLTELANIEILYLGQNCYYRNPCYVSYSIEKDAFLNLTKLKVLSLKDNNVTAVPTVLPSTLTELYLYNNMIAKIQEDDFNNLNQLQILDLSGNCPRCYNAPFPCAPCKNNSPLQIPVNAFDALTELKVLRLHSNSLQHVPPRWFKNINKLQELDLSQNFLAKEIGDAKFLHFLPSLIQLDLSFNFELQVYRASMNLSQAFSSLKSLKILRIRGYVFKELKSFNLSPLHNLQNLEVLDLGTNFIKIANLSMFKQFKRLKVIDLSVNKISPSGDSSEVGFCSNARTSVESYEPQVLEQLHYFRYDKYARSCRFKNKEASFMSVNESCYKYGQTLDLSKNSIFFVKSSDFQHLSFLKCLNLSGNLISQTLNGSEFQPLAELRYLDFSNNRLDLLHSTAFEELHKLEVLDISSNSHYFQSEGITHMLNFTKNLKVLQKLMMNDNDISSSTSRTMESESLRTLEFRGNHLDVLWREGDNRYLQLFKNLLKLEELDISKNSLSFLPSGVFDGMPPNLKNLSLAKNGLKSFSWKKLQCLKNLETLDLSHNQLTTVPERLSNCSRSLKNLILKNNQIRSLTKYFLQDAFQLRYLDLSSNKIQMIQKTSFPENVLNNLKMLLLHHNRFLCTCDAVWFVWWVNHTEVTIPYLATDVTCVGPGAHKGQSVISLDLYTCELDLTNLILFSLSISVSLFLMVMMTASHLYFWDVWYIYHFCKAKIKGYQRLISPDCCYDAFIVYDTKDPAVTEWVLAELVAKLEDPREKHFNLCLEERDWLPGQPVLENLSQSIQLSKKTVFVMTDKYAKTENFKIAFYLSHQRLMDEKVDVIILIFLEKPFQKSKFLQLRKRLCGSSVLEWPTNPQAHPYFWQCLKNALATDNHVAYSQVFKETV

human TLR8 = molecular target: T2, human TLR8 (Homo sapiens, UniProt Q9NR97); test: Toll-Like Receptor (TLR) screening assay, TLR8; type: cell-based; conditions: 10 μM
T2 sequence (Q9NR97 27-1041): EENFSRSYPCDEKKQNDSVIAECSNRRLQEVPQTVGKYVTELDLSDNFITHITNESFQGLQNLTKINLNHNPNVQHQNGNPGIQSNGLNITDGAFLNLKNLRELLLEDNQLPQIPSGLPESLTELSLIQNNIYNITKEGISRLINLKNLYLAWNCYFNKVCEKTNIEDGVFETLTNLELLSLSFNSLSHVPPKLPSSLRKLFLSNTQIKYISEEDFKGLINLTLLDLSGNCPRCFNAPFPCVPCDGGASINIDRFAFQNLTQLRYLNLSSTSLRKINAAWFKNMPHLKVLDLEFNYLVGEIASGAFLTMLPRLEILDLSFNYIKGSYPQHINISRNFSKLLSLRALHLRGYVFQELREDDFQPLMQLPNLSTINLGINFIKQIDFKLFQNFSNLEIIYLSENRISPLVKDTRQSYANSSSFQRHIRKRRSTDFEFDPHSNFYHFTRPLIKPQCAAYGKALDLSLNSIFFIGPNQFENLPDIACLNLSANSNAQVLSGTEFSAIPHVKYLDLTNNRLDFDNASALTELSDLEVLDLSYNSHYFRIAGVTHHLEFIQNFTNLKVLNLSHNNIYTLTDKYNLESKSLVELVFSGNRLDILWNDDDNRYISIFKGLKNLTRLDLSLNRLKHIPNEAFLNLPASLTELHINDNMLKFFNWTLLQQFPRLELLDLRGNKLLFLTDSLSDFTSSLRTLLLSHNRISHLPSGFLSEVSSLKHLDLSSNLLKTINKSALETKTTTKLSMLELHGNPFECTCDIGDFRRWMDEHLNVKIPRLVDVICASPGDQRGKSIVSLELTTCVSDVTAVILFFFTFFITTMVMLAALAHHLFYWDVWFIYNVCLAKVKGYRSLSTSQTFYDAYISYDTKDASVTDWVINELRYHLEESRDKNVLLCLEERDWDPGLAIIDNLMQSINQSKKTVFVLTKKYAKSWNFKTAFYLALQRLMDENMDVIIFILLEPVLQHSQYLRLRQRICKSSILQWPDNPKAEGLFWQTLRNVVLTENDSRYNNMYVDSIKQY

human TLR5, sequence (O60602 21-858): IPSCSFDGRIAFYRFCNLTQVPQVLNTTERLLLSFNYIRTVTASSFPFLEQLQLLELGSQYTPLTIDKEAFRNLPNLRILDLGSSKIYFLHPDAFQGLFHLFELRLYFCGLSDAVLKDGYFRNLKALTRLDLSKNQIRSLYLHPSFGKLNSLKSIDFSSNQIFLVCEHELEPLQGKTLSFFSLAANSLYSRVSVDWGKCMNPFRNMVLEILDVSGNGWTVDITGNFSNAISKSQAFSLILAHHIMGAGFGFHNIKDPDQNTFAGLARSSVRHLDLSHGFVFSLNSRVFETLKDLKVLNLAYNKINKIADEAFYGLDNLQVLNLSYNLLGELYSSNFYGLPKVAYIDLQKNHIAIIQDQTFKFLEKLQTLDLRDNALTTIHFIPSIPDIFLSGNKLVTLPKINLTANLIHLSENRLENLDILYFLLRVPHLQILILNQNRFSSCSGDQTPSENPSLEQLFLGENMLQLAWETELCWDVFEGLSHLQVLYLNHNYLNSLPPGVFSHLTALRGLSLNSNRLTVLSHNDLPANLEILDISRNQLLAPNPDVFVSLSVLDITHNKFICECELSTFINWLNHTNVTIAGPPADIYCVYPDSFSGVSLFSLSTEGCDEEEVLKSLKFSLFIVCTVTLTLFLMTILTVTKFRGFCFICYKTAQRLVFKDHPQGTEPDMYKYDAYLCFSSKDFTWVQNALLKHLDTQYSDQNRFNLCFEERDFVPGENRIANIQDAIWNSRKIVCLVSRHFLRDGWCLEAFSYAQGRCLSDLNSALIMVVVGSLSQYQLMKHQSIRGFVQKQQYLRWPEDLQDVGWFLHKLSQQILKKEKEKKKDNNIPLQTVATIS
CXCR4 receptor, sequence (P61073 whole entry): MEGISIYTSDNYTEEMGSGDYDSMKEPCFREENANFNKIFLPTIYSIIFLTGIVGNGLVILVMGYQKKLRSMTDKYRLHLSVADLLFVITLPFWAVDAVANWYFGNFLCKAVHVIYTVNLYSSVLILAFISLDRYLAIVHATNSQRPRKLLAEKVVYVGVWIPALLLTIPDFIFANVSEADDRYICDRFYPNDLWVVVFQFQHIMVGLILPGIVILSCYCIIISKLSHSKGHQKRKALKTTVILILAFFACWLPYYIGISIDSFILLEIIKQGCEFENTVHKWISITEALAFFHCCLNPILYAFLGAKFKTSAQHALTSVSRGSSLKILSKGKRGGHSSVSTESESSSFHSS
human TLR 2, sequence (O60603 21-784): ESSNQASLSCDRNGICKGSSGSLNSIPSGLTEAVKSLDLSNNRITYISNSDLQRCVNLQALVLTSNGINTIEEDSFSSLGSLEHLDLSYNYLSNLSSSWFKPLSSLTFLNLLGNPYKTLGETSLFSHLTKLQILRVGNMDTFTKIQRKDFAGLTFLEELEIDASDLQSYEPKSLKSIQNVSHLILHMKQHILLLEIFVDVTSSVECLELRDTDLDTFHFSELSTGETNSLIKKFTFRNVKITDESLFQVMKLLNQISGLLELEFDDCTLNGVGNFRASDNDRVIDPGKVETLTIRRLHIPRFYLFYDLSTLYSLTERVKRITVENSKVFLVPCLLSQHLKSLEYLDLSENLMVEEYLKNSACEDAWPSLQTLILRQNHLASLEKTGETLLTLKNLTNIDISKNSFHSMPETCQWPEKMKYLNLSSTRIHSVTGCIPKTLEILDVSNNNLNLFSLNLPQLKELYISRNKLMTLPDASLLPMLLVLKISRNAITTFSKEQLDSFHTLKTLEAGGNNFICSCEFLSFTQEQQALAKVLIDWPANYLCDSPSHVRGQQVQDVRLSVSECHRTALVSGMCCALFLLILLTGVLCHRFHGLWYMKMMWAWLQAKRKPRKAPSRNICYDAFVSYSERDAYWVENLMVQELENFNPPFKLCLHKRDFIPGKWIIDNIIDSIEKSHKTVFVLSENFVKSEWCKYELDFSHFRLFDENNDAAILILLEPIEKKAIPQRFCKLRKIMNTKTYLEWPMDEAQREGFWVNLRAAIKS

## CCCCCCCCCCCCCCCC(=O)NCCCC[C@@H](N)C(=O)NCCCNCCCCNCCCN [AMXT 1501, D-Lys(C16acyl)-Spm]
CXCR4 receptor
  inhibition of radiolabeled SDF-1α binding: no inhibition
Human TLR 2
  stimulatory effect on TLR2: 19 % of control
Human TLR5
  activity on TLR5: no significant activity
Human TLR7
  activity on TLR7: no significant activity
Human TLR8
  activity on TLR8: no significant activity
